Laboratory results published in the NIST ThermoML archive (doi:10.1021/je900210h).
Where “and” joins values, the source holds several entries; their conditions need not be identical. Identical values can stand only once.

Conditions: Fluid (supercritical or subcritical phases), Coaxial cylinder method

FCC(F)(F)F [1,1,1,2-tetrafluoroethane]
Conditions | thermal conductivity
375.76 K, 4223 kPa | 0.0752 W/m/K
375.77 K, 4161 kPa | 0.0731 W/m/K
375.79 K, 4241 kPa | 0.0673 W/m/K
375.8 K, 3504 kPa | 0.029 W/m/K
375.8 K, 4150 kPa | 0.0656 W/m/K
375.81 K, 3534 kPa | 0.0279 W/m/K
375.82 K, 4254 kPa | 0.0627 W/m/K
375.83 K, 4141 kPa | 0.06 W/m/K
375.84 K, 4279 kPa | 0.0589 W/m/K
375.85 K, 4296 kPa | 0.0573 W/m/K
375.86 K, 4316 kPa | 0.0558 W/m/K
375.86 K, 4334 kPa | 0.0551 W/m/K
375.87 K, 3165 kPa | 0.0261 W/m/K
375.87 K, 3264 kPa | 0.0264 W/m/K
375.87 K, 4132 kPa | 0.0548 W/m/K
375.87 K, 4349 kPa | 0.0546 W/m/K
375.87 K, 4363 kPa | 0.0539 W/m/K
375.88 K, 4387 kPa | 0.0535 W/m/K
375.88 K, 4432 kPa | 0.0526 W/m/K
375.88 K, 4461 kPa | 0.0526 W/m/K and 0.0524 W/m/K
375.89 K, 4451 kPa | 0.0521 W/m/K
375.89 K, 4630 kPa | 0.052 W/m/K
375.9 K, 2970 kPa | 0.0251 W/m/K
375.92 K, 4120 kPa | 0.0485 W/m/K
375.93 K, 2700 kPa | 0.0265 W/m/K
375.94 K, 2662 kPa | 0.024 W/m/K
375.95 K, 2429 kPa | 0.0235 W/m/K
375.95 K, 3993 kPa | 0.0374 W/m/K
375.99 K, 3936 kPa | 0.0349 W/m/K
375.99 K, 4072 kPa | 0.0417 W/m/K
376.01 K, 3908 kPa | 0.034 W/m/K
376.02 K, 4205 kPa | 0.0817 W/m/K
376.02 K, 4207 kPa | 0.0822 W/m/K
376.02 K, 4209 kPa | 0.0826 W/m/K
376.02 K, 4213 kPa | 0.0826 W/m/K
376.02 K, 4217 kPa | 0.0821 W/m/K
376.03 K, 4203 kPa | 0.0807 W/m/K
376.03 K, 4222 kPa | 0.0806 W/m/K
376.03 K, 4225 kPa | 0.0797 W/m/K
376.04 K, 1048 kPa | 0.0214 W/m/K
376.04 K, 4039 kPa | 0.0379 W/m/K
376.04 K, 4200 kPa | 0.0784 W/m/K
376.04 K, 4230 kPa | 0.0774 W/m/K
376.04 K, 4233 kPa | 0.0766 W/m/K
376.05 K, 773 kPa | 0.0212 W/m/K
376.05 K, 4198 kPa | 0.0754 W/m/K
376.06 K, 524 kPa | 0.0208 W/m/K
376.06 K, 4011 kPa | 0.0362 W/m/K
376.06 K, 4242 kPa | 0.0737 W/m/K
376.07 K, 200 kPa | 0.0205 W/m/K
376.07 K, 4190 kPa | 0.0693 W/m/K
376.07 K, 4250 kPa | 0.0708 W/m/K
376.08 K, 3975 kPa | 0.0352 W/m/K
376.08 K, 4260 kPa | 0.0686 W/m/K
376.09 K, 4270 kPa | 0.0669 W/m/K
376.09 K, 4280 kPa | 0.0656 W/m/K
376.1 K, 3941 kPa | 0.0342 W/m/K
376.1 K, 4180 kPa | 0.0622 W/m/K
376.1 K, 4300 kPa | 0.0638 W/m/K
376.11 K, 3913 kPa | 0.0333 W/m/K
376.11 K, 4320 kPa | 0.0624 W/m/K
376.14 K, 5520 kPa | 0.054 W/m/K
376.14 K, 5651 kPa | 0.0543 W/m/K
376.14 K, 5740 kPa | 0.0545 W/m/K
376.15 K, 4789 kPa | 0.0527 W/m/K
376.15 K, 5037 kPa | 0.0529 W/m/K
376.15 K, 5092 kPa | 0.0531 W/m/K
376.15 K, 5216 kPa | 0.0534 W/m/K
376.15 K, 5296 kPa | 0.0536 W/m/K
376.16 K, 4754 kPa | 0.0523 W/m/K
376.19 K, 4160 kPa | 0.0503 W/m/K
376.21 K, 3800 kPa | 0.0312 W/m/K
376.21 K, 4150 kPa | 0.048 W/m/K
376.23 K, 2350 kPa | 0.0256 W/m/K
376.23 K, 3734 kPa | 0.0301 W/m/K
376.26 K, 4264 kPa | 0.081 W/m/K
376.26 K, 4360 kPa | 0.0608 W/m/K
376.26 K, 4390 kPa | 0.06 W/m/K
376.27 K, 4230 kPa | 0.0811 W/m/K
376.28 K, 4218 kPa | 0.0789 W/m/K
376.28 K, 4267 kPa | 0.0803 W/m/K
376.29 K, 4214 kPa | 0.078 W/m/K
376.29 K, 4279 kPa | 0.0786 W/m/K
376.31 K, 4210 kPa | 0.077 W/m/K
376.33 K, 3030 kPa | 0.0242 W/m/K
376.34 K, 4199 kPa | 0.074 W/m/K
376.34 K, 4305 kPa | 0.0746 W/m/K
376.38 K, 2200 kPa | 0.0252 W/m/K
376.38 K, 4192 kPa | 0.0712 W/m/K
376.4 K, 3872 kPa | 0.0323 W/m/K
376.41 K, 3872 kPa | 0.0317 W/m/K
